In PubChem BioAssay AID1845194 (Molecular Pharmacology Branch, DTP, NCI, 2023):
Several values for one entry are separate records, joined by “and”; a condition that tells them apart may be missing. Equal entries are not always repeated.

Test system: 287954-098-R-J1 tumor spheroid viability
Assay: Anticancer human tumor 287954-098-R-J1 patient-derived Ewing sarcoma cell line growth inhibition
Conditions: spheroids with HUVEC and MSC; for viability, T/C: stronger effect = lower value
Method in brief: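 Complex spheroids of malignant cells with endothelial cells and mesenchymal stem cells; agents alone or combined, from near clinical Cmax (or 10 microM if unknown) down in half-log steps, 0.25% DMSO final.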

[1] = curve of first compound, second compound 0.003 µM
[2] = second compound 0.003 µM, first compound 0.00949 µM
[3] = second compound 0.003 µM, first compound 0.03 µM
[4] = second compound 0.003 µM, first compound 0.0949 µM
[5] = second compound 0.003 µM, first compound 0.3 µM
[6] = second compound 0.003 µM, first compound 0.949 µM
[7] = second compound 0.003 µM, first compound 3 µM
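Note: spheroids exposed to compound for 7 days before viability readout.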
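Throughout, for viability, T/C: luminescent signal taken as surrogate of viable cell content; 100% = DMSO vehicle control viability and lower means growth inhibition.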

Question: With Cn1ncnc1[C@H]1c2n[nH]c(=O)c3cc(F)cc(c23)N[C@@H]1c1ccc(F)cc1 + COc1cc2c(cc1O)CCNC21CSC2c3c(OC(C)=O)c(C)c4c(c3C(COC1=O)N1C(O)C3Cc5cc(C)c(OC)c(O)c5C(C21)N3C)OCO4 as the compound, how does the IC50 (curve of first compound, second compound 30 pM) read?
Answer: 575 nM

Question: And the IC50 (curve of first compound, second compound 94.9 pM)?
Answer: 477 nM

Question: What about the IC50 (curve of first compound, second compound 0.0003 µM) of the same compound?
Answer: 39 nM

Question: And the IC50 (curve of first compound, second compound 0.000949 µM)?
Answer: < 9.49 nM

Question: What about the IC50 [1] of the same compound?
Answer: < 9.49 nM

Question: And the viability, T/C (second compound 30 pM, first compound 0.00949 µM)?
Answer: 99%

Question: What about the viability, T/C (second compound 30 pM, first compound 0.03 µM) of the same compound?
Answer: 111%

Question: What about the viability, T/C (second compound 30 pM, first compound 0.0949 µM) of the same compound?
Answer: 102%

Question: What about the viability, T/C (second compound 30 pM, first compound 0.3 µM) of the same compound?
Answer: 97.6%

Question: And the viability, T/C (second compound 30 pM, first compound 0.949 µM)?
Answer: 13.3%

Question: What about the viability, T/C (second compound 30 pM, first compound 3 µM) of the same compound?
Answer: 1.27%

Question: What about the viability, T/C (second compound 94.9 pM, first compound 0.00949 µM) of the same compound?
Answer: 107%

Question: What about the viability, T/C (second compound 94.9 pM, first compound 0.03 µM) of the same compound?
Answer: 104%

Question: What about the viability, T/C (second compound 94.9 pM, first compound 0.0949 µM) of the same compound?
Answer: 106%

Question: What about the viability, T/C (second compound 94.9 pM, first compound 0.3 µM) of the same compound?
Answer: 82.7%

Question: And the viability, T/C (second compound 94.9 pM, first compound 0.949 µM)?
Answer: 1.42%

Question: And the viability, T/C (second compound 94.9 pM, first compound 3 µM)?
Answer: 1.02%

Question: And the viability, T/C (second compound 0.0003 µM, first compound 0.00949 µM)?
Answer: 81.8%

Question: What about the viability, T/C (second compound 0.0003 µM, first compound 0.03 µM) of the same compound?
Answer: 63%

Question: And the viability, T/C (second compound 0.0003 µM, first compound 0.0949 µM)?
Answer: 6%

Question: What about the viability, T/C (second compound 0.0003 µM, first compound 0.3 µM) of the same compound?
Answer: 1.31%

Question: What about the viability, T/C (second compound 0.0003 µM, first compound 0.949 µM) of the same compound?
Answer: 0.92%

Question: And the viability, T/C (second compound 0.0003 µM, first compound 3 µM)?
Answer: 0.91%

Question: What about the viability, T/C (second compound 0.000949 µM, first compound 0.00949 µM) of the same compound?
Answer: 0.31%

Question: And the viability, T/C (second compound 0.000949 µM, first compound 0.03 µM)?
Answer: 0.21%

Question: And the viability, T/C (second compound 0.000949 µM, first compound 0.0949 µM)?
Answer: 0.23%

Question: And the viability, T/C (second compound 0.000949 µM, first compound 0.3 µM)?
Answer: 0.13%

Question: And the viability, T/C (second compound 0.000949 µM, first compound 0.949 µM)?
Answer: 0.04%

Question: What about the viability, T/C (second compound 0.000949 µM, first compound 3 µM) of the same compound?
Answer: 0.12%

Question: What about the viability, T/C [2] of the same compound?
Answer: 0.16%

Question: What about the viability, T/C [3] of the same compound?
Answer: 0.17%

Question: What about the viability, T/C [4] of the same compound?
Answer: 0.13%

Question: And the viability, T/C [5]?
Answer: 0.12%

Question: And the viability, T/C [6]?
Answer: 0.12%

Question: What about the viability, T/C [7] of the same compound?
Answer: 0.2%

Question: With Cc1sc2c(c1C)C(c1ccc(Cl)cc1)=NC(CC(=O)Nc1ccc(O)cc1)c1nnc(C)n1-2 (centres undefined) as the compound, how does the viability, T/C (compound 0.00949 µM) read?
Answer: 113% and 114% and 104%

Question: What about the viability, T/C (compound 0.03 µM) of the same compound?
Answer: 113% and 116% and 107%

Question: What about the viability, T/C (compound 0.0949 µM) of the same compound?
Answer: 116% and 126% and 112%

Question: What about the viability, T/C (compound 0.3 µM) of the same compound?
Answer: 86.4% and 108% and 84.2%

Question: What about the viability, T/C (compound 0.949 µM) of the same compound?
Answer: 41% and 29% and 17.1%

Question: What about the viability, T/C (compound 3 µM) of the same compound?
Answer: 4.42% and 2.62% and 6.59%

Question: What about the IC50 (curve of compound) of the same compound?
Answer: 747 nM and 699 nM and 539 nM

Question: With Cc1sc2c(c1C)C(c1ccc(Cl)cc1)=NC(CC(=O)Nc1ccc(O)cc1)c1nnc(C)n1-2 (centres undefined) + CC[C@@]1(O)C(=O)OCc2c1cc1n(c2=O)Cc2cc3c(CN(C)C)c(O)ccc3nc2-1 as the compound, how does the IC50 [1] read?
Answer: 555 nM

Question: And the IC50 (curve of first compound, second compound 0.00949 µM)?
Answer: 185 nM

Question: What about the IC50 (curve of first compound, second compound 0.03 µM) of the same compound?
Answer: < 9.49 nM

Question: What about the IC50 (curve of first compound, second compound 0.0949 µM) of the same compound?
Answer: < 9.49 nM

Question: What about the IC50 (curve of first compound, second compound 0.3 µM) of the same compound?
Answer: < 9.49 nM

Question: What about the viability, T/C [2] of the same compound?
Answer: 110%

Question: What about the viability, T/C [3] of the same compound?
Answer: 117%

Question: What about the viability, T/C [4] of the same compound?
Answer: 123%

Question: And the viability, T/C [5]?
Answer: 90.1%

Question: And the viability, T/C [6]?
Answer: 15.2%

Question: And the viability, T/C [7]?
Answer: 1.91%

Question: What about the viability, T/C (second compound 0.00949 µM, first compound 0.00949 µM) of the same compound?
Answer: 117%

Question: And the viability, T/C (second compound 0.00949 µM, first compound 0.03 µM)?
Answer: 112%

Question: And the viability, T/C (second compound 0.00949 µM, first compound 0.0949 µM)?
Answer: 106%

Question: What about the viability, T/C (second compound 0.00949 µM, first compound 0.3 µM) of the same compound?
Answer: 9.5%

Question: And the viability, T/C (second compound 0.00949 µM, first compound 0.949 µM)?
Answer: 1.8%

Question: What about the viability, T/C (second compound 0.00949 µM, first compound 3 µM) of the same compound?
Answer: 1.47%

Question: And the viability, T/C (second compound 0.03 µM, first compound 0.00949 µM)?
Answer: 2.84%

Question: And the viability, T/C (second compound 0.03 µM, first compound 0.03 µM)?
Answer: 3%

Question: And the viability, T/C (second compound 0.03 µM, first compound 0.0949 µM)?
Answer: 1.99%

Question: And the viability, T/C (second compound 0.03 µM, first compound 0.3 µM)?
Answer: 1.63%

Question: And the viability, T/C (second compound 0.03 µM, first compound 0.949 µM)?
Answer: 1.17%

Question: And the viability, T/C (second compound 0.03 µM, first compound 3 µM)?
Answer: 1.04%

Question: What about the viability, T/C (second compound 0.0949 µM, first compound 0.00949 µM) of the same compound?
Answer: 1.98%

Question: And the viability, T/C (second compound 0.0949 µM, first compound 0.03 µM)?
Answer: 2.06%

Question: And the viability, T/C (second compound 0.0949 µM, first compound 0.0949 µM)?
Answer: 1.8%

Question: What about the viability, T/C (second compound 0.0949 µM, first compound 0.3 µM) of the same compound?
Answer: 1.32%

Question: And the viability, T/C (second compound 0.0949 µM, first compound 0.949 µM)?
Answer: 1.09%

Question: And the viability, T/C (second compound 0.0949 µM, first compound 3 µM)?
Answer: 1.22%

Question: And the viability, T/C (second compound 0.3 µM, first compound 0.00949 µM)?
Answer: 1.94%

Question: What about the viability, T/C (second compound 0.3 µM, first compound 0.03 µM) of the same compound?
Answer: 2.02%

Question: And the viability, T/C (second compound 0.3 µM, first compound 0.0949 µM)?
Answer: 1.68%

Question: What about the viability, T/C (second compound 0.3 µM, first compound 0.3 µM) of the same compound?
Answer: 1.25%

Question: What about the viability, T/C (second compound 0.3 µM, first compound 0.949 µM) of the same compound?
Answer: 1.2%

Question: What about the viability, T/C (second compound 0.3 µM, first compound 3 µM) of the same compound?
Answer: 1%

Question: Which viability, T/C (compound 0.00949 µM) does the source give for CNCc1ccc(-c2cc(-c3nc(-c4ccc(S(=O)(=O)C(C)C)cc4)cnc3N)on2)cc1 here?
Answer: 103% (2×) and 109%

Question: What about the viability, T/C (compound 0.03 µM) of the same compound?
Answer: 108% and 117% and 107%

Question: What about the viability, T/C (compound 0.0949 µM) of the same compound?
Answer: 110% and 112% and 105%

Question: And the viability, T/C (compound 0.3 µM)?
Answer: 107% and 103% (2×)

Question: What about the viability, T/C (compound 0.949 µM) of the same compound?
Answer: 0.28% and 0.55% and 0.27%

Question: What about the viability, T/C (compound 3 µM) of the same compound?
Answer: 0.18% and 0.53% and 0.23%

Question: And the IC50 (curve of compound)?
Answer: 555 nM and 545 nM and 542 nM
